Earlier results on 1 compound are cited in patent publication EP1288303A1, “Inducible expression systems employing PPAR transcriptional activators” (Aventis Pharma S.A., priority 2001, dated 2003).

For the series the following is noted: form not soluble in water; doses between 5 and 50 mg/kg, for example 30 mg/kg.

Structures are written as SMILES.

Turning to `CN(CCOc1ccc(CC2SC(=O)NC2=O)cc1)c1ccccn1` (stereo not shown) [BRL49653, rosiglitazone], the plasma concentration entry is recorded as “about 15 µg/ml”.
